According to US20220204449A1, “BIASED AGONISTS OF OPIOID RECEPTORS” (ILDONG PHARMACEUTICAL CO., LTD., priority 2020, published 2022):
Entries after “also recorded” stand apart in the source; their conditions may differ.

Tests used:
Format in all cases: cell-based
[1] = molecular target: T1, human μ-opioid receptor, OPRM (Homo sapiens, UniProt P35372); experiment: cAMP accumulation assay (Gi pathway), OPRM cell line; conditions: Table 1
T1 construct: host or cells: HEK-293 overexpressing β-arrestin2 fused to a β-galactosidase fragment
From the text: (§1) Human embryonic kidney 293 (HEK-293) cells which transfected overexpress (3-arrestin2 fused β-galactosidase fragment were purchased from DiscoverX. Human OPRM1 gene (NM 000914.3, encoding human μ-opioid receptor, OPRM) and Human OPRD1 gene (NM 000911.3, encoding human δ-opioid receptor, OPRD) were fused to a pCMV-ProLink plasmid which contains complementary β-galactosidase fragment purchased from DiscoverX. To generate human OPRM1 or OPRD1 expression cell lines, HEK-293 cells were transfected to prepared plasmid and grown in DMEM medium with 10% fetal bovine serum, 150 μg/mL Hygromycin B and 500 μg/mL G418.
(§2) Cyclic Adenosine Monophosphate (cAMP) Accumulation
(§3) The agonist's efficacy to the G protein pathway was determined by changes in the cAMP level using the Cisbio cAMP detection kit. The cells used in cAMP assays are the same cell line as used in the β-arrestin 2 assays. The human opioid receptor activates the Gαi so intracellular cAMP accumulation is inhibited. Cisbio detection kit uses labeled cAMP and antibody. This system proceeds to compete with endogenous cAMP. If Gαi is activated, intracellular cAMP decreases. This assures that labeled-cAMP binds more with the antibody so that time-resolved fluorescence […].
(§4) cAMP and β-arrestin assays described above were conducted to decide whether candidate compounds were μ- and/or δ-opioid receptor bias agonists for the G-protein pathway. All assays produced the concentration-response curve, and the curve data was validated by a quality control factor named Z′ factor. Because half-maximal effect concentration (EC50) depends on the population of receptors, the maximal asymptote of the concentration curve was used. Efficacy data of candidates was normalized by comparison to reference agonists DAMGO and SNC80 for OPRM and OPRD.
(§5) The hill slope describes the steepness of the curve. […] We set the appropriate interval of hill slope as 0.8<n<1.5 which maintains the sigmoidal curve shape.

[2] = molecular target: T2, human δ-opioid receptor, OPRD (Homo sapiens, UniProt P41143); experiment: cAMP accumulation assay (Gi pathway), OPRD cell line; conditions: for OPRD Gi Hill slope: cAMP concentration-response curve; for EC50: read-out: OPRD Gi EC50
T2 construct: host or cells: HEK-293 overexpressing β-arrestin2 fused to a β-galactosidase fragment
From the text: as §1, §2, §3, §4, §5

[3] = molecular target: T1, human μ-opioid receptor, OPRM; experiment: PathHunter β-arrestin 2 assay, OPRM cell line
From the text: as §1
(§6) The PathHunter enzyme assay was performed to measure the agonist's capability of β-arrestin 2 pathway activation. When agonists bind to G protein-coupled receptor (GPCR), the receptor pathway is sequentially activated from G protein to β-arrestin 2 recruitment.
(§7) Because […] β-arrestin 2 and C-terminal of GPCR have a fragment of β-galactosidase, recruitment of β-arrestin 2 to GPCR forms the whole β-galactosidase. The functionality of the whole β-galactosidase is detected by chemiluminescence (FlexStation3, Molecular Devices).
as §4

[4] = molecular target: T2, human δ-opioid receptor, OPRD; experiment: PathHunter β-arrestin 2 assay, OPRD cell line
From the text: as §1, §6, §7, §4

[5] = molecular target: T1, human μ-opioid receptor, OPRM; experiment: Dominant assay: cAMP assay with/without irreversible antagonist β-FNA, OPRM cell line; conditions: for maximal response on decreasing receptor population (dominant tendency), in words: OPRM cell lines, β-FNA
From the text: (§8) To confirm the agonist's efficacy in a nature-like system, we need inactivation of target receptors on the cell membrane. Most cell lines have an abundant target receptor population (also known as spare receptors). Therefore, agonists have more opportunity to constitute agonist-receptor conformation. In this environment, not only full agonists but also partial agonists can reach maximal response.
(§9) If the partial agonist is selected as a full agonist, translational in vivo research will likely fail.
(§10) Non-competitive, irreversible antagonists can be applicable to judge the pharmacological character of agonists because they permanently decrease the receptor population in the cell line system. β-FNA or β-CNA is used as a non-competitive and irreversible antagonist for OPRM, OPRD. Before cAMP assay, cells were incubated with β-FNA or β-CNA for 40 minutes. Afterwards, the procedure is the same.
(§11) If a partial agonist compound acts as a full agonist due to receptor population (pseudo full agonist), it cannot sustain maximal response with reduced receptor population. However, a full agonist compound maintains their maximal response even though increased EC50.

[6] = molecular target: T2, human δ-opioid receptor, OPRD; experiment: Dominant assay: cAMP assay with/without irreversible antagonist β-CNA, OPRD cell line; conditions: for maximal response on decreasing receptor population (dominant tendency), in words: OPRD cell lines, β-CNA; for completeness of concentration-response curve, in words: OPRD system
From the text: as §8, §9, §10, §11

[7] = addition of β-FNA, Example 3, Tables 5-7, read-out: OPRM Gi β-FNA (+) EC50
[8] = addition of β-FNA, repeated dominant assay, Example 4, Tables 8-10, read-out: OPRM Gi β-FNA (+) EC50
[9] = no addition of β-FNA, Example 3, Tables 5-7, read-out: OPRM Gi β-FNA (−) EC50
[10] = no addition of β-FNA, repeated dominant assay, Example 4, Tables 8-10, read-out: OPRM Gi β-FNA (−) EC50
[11] = addition of β-CNA, Example 3, Tables 5-7, read-out: OPRD Gi β-CNA (+) EC50
[12] = addition of β-CNA, repeated dominant assay, Example 4, Tables 8-10, read-out: OPRD Gi β-CNA (+) EC50
[13] = no addition of β-CNA, Example 3, Tables 5-7, read-out: OPRD Gi β-CNA (−) EC50
[14] = no addition of β-CNA, repeated dominant assay, Example 4, Tables 8-10, read-out: OPRD Gi β-CNA (−) EC50
[15] = addition of β-FNA, Example 3, Tables 5-7
[16] = addition of β-FNA, repeated dominant assay, Example 4, Tables 8-10
[17] = no addition of β-FNA, Example 3, Tables 5-7
[18] = no addition of β-FNA, repeated dominant assay, Example 4, Tables 8-10
[19] = addition of β-CNA, Example 3, Tables 5-7
[20] = addition of β-CNA, repeated dominant assay, Example 4, Tables 8-10
[21] = no addition of β-CNA, Example 3, Tables 5-7
[22] = no addition of β-CNA, repeated dominant assay, Example 4, Tables 8-10

T2 sequence (P41143 whole entry, the tested form may be a part): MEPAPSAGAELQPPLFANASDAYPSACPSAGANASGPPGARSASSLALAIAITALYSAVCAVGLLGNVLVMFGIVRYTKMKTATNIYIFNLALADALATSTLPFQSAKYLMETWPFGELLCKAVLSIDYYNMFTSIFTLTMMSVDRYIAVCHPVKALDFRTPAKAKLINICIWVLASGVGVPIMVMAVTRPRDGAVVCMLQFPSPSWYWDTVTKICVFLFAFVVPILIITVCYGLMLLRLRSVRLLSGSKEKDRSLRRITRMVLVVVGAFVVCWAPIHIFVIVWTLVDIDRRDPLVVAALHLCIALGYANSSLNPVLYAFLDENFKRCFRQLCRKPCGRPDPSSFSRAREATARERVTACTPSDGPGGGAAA
T1 sequence (P35372 whole entry, the tested form may be a part): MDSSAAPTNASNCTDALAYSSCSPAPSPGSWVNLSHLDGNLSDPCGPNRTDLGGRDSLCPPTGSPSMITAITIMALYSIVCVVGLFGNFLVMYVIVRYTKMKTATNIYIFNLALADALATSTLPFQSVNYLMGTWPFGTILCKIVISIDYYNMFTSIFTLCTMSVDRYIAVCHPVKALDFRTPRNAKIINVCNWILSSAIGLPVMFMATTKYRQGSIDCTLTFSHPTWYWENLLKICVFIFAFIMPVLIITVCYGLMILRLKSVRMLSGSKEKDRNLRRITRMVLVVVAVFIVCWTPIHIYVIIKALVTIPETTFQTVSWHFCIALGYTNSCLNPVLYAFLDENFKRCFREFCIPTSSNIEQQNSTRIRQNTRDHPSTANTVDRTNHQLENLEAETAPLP

| Compound | OPRD Gi Hill slope ([2]; Table 1) | EC50 ([2]; Table 1, cAMP) [nM] | maximal response on decreasing receptor population (dominant tendency), in words [5] | EC50 [5, 7] [nM] | EC50 [5, 8] [nM] | EC50 [5, 9] [nM] | EC50 [5, 10] [nM] | maximal response on decreasing receptor population (dominant tendency), in words [6] | completeness of concentration-response curve, in words [6] | EC50 [6, 11] [nM] | EC50 [6, 12] [nM] | EC50 [6, 13] [nM] | EC50 [6, 14] [nM] | OPRM β-ARR2 Emax (%) ([3]; Example 3, Tables 5-7) | OPRD β-ARR2 Emax (%) ([4]; Example 3, Tables 5-7) | OPRM Gi β-FNA (+) Emax (%) [5, 15] [%] | OPRM Gi β-FNA (+) Emax (%) [5, 16] [%] | OPRM Gi β-FNA (−) Emax (%) [5, 17] [%] | OPRD Gi β-CNA (+) Emax (%) [6, 19] [%] | OPRD Gi β-CNA (−) Emax (%) [6, 21] [%] | other results |
| --- | --- | --- | --- | --- | --- | --- | --- | --- | --- | --- | --- | --- | --- | --- | --- | --- | --- | --- | --- | --- | --- |
| CN1CCc2cc(C(CNC(=O)Nc3ccc(F)cc3)N(C)C)ccc21 (racemic) [Compound 2, 3-[2-(dimethylamino)-2-(1-methyl-2,3-dihydro-1H-indol-5-yl)ethyl]-1-(4-fluorophenyl)urea] | 1.44 | 1050 | showed a similar pattern as compared to DAMGO; also recorded: resistant to decreasing spare receptors; also recorded: resistant to decreasing spare receptor-induced tendency | 1170 | 4190 | 682 | 1700 | resistant to decreasing spare receptors; also recorded: resistant to decreasing spare receptor-induced tendency | produced a full concentration-response curve | 2380 | 6220 | 4.98 | 1650 |  |  |  |  |  |  |  | EC50 ([1]; cAMP): 1880 nM; OPRM Gi Hill slope ([1]; cAMP concentration-response curve): 0.94; Emax ([1]; cAMP, normalized to reference agonist DAMGO): 109%; Emax ([2]; Table 1, cAMP, normalized to reference agonist SNC80): 92.4%; Emax ([3]; Example 3, Tables 5-7, read-out: OPRM β-ARR2 Emax (%)): 15.3%; Emax ([3]; Table 1, normalized to reference agonist DAMGO, read-out: OPRM arrestin Emax, %): 15.3%; Emax ([4]; Example 3, Tables 5-7, read-out: OPRD β-ARR2 Emax (%)): 4.66%; Emax ([4]; Table 1, normalized to reference agonist SNC80, read-out: OPRD arrestin Emax, %): 4.66%; Emax ([5]; addition of β-FNA, Example 3, Tables 5-7, read-out: OPRM Gi β-FNA (+) Emax (%)): 80.1%; Emax ([5]; addition of β-FNA, repeated dominant assay, Example 4, Tables 8-10, read-out: OPRM Gi β-FNA (+) Emax (%)): 77.4%; Emax ([5]; no addition of β-FNA, Example 3, Tables 5-7, read-out: OPRM Gi β-FNA (−) Emax (%)): 98.6%; Emax ([5]; no addition of β-FNA, repeated dominant assay, Example 4, Tables 8-10, read-out: OPRM Gi β-FNA (−) Emax (%)): 103%; Emax ([6]; addition of β-CNA, Example 3, Tables 5-7, read-out: OPRD Gi β-CNA (+) Emax (%)): 78.5%; Emax ([6]; addition of β-CNA, repeated dominant assay, Example 4, Tables 8-10, read-out: OPRD Gi β-CNA (+) Emax (%)): 70.2%; Emax ([6]; no addition of β-CNA, Example 3, Tables 5-7, read-out: OPRD Gi β-CNA (−) Emax (%)): 98.9%; Emax ([6]; no addition of β-CNA, repeated dominant assay, Example 4, Tables 8-10, read-out: OPRD Gi β-CNA (−) Emax (%)): 100% |
| CN(C)C(CNC(=O)Cc1ccc2c(c1)OCCO2)c1ccccc1 (single isomer, unassigned) [Compound 5] |  |  | superior efficacy-dominant properties | 2450 | 4070 | 292 | 1650 | superior efficacy-dominant properties |  | 6100 | 8790 | 6660 | 7330 | 23.1 | 5.7 | 21.91 | 77.98 | 102 | 79.38 | 111 | OPRM Gi β-FNA (−) Emax (%) [5, 18]: 101.9%; OPRD Gi β-CNA (+) Emax (%) [6, 20]: 65.27%; OPRD Gi β-CNA (−) Emax (%) [6, 22]: 100% |
| CN1CCc2cc(C(CNC(=O)Nc3ccc(F)cc3)N(C)C)ccc21 (single isomer, unassigned) [Compound 7] |  |  | resistant to decreasing spare receptors; also recorded: showed efficacy dominance on both types of opioid receptors; also recorded: resistant to decreasing spare receptor-induced tendency; also recorded: maintained a higher maximal response as compared to compound 2 | 728 | 6950 | 41.6 | 2310 | resistant to decreasing spare receptors; also recorded: showed efficacy dominance on both types of opioid receptors; also recorded: resistant to decreasing spare receptor-induced tendency; also recorded: maintained a higher maximal response as compared to compound 2 |  | 4900 | 3440 | 517 | 1050 | 22.0 | 6.4 | 85.93 | 90.07 | 95.81 | 100.2 | 98.3 | OPRM Gi β-FNA (−) Emax (%) [5, 18]: 100.9%; OPRD Gi β-CNA (+) Emax (%) [6, 20]: 81.99%; OPRD Gi β-CNA (−) Emax (%) [6, 22]: 100.2% |
| C[C@@H](Cc1ccsc1)NC(=O)NC[C@H](Cc1ccc(O)cc1)N(C)C [PZM21, reference compound] | 0.83 | 230 |  |  |  |  |  | more susceptible to decreasing receptor populations than SNC80; also recorded: less resistance to decreasing spare receptors than SNC80 | produced a full concentration-response curve | 288 |  | 119 |  |  | 3.41 |  |  |  | 58.77 | 95.97 | Gi pathway agonism, in words ([2]; OPRD): OPRM, OPRD dual biased agonist; OPRD arrestin Emax, % ([4]; Table 1, normalized to reference agonist SNC80): 3.41% |
